Test results published in patent US8148508 (dated 2012).

How the values were obtained:
[1] = system: clostripain; assay: 10 mM Tris, 1 mM EDTA, 5 mM CaCl2 (pH 8.0), varying clostripain ratios; conditions: 21° C.; also 40° C., up to 10 hr
[2] = system: clostripain; assay: cell free extract containing T7tag-GSDR-[GLP-2(1-34)]6 precursor, pH 6.4 NaH2PO4, 1 mM CaCl2, 1 mM DTT; conditions: 25° C., up to approximately 3 hours
[3] = system: clostripain; assay: clostripain digestion under different pH conditions
[4] = system: clostripain; assay: 50 mM HEPES buffer (pH 6.7), 1 mM CaCl2, 1 mM cysteine, 4.8 M urea, 10, 20 and 35% ethanol; conditions: 25° C., up to 30 minutes
[5] = system: recombinant clostripain; assay: cell free extract with 0.2 units of recombinant clostripain per mg precursor polypeptide; conditions: up to up to 3 hours

| fragment found [1] | fragment found [2] | fragment found [3] | fragment found [4] | fragment found [5] | Sequence |
| --- | --- | --- | --- | --- | --- |
| truncated GLP-2(21-34) | GLP-2 fragment (21-34) |  |  |  | HADGSFSDEMNTILDNLAARDFINWLIQTKITDR |
|  |  | GLP-2(21-33) | GLP-2(21-33) | GLP-2 fragment (21-33) | HGDGSFSDEMNTILDNLAARDFINWLIQTKITD |
